In brackets after ≈: the same amount, converted by molar mass.
Tests used:
OXYL [1] = target: T1, OXYL (Anneissia japonica, UniProt A0A482DHP7); assay: hemagglutination inhibition, rabbit erythrocytes; type: binding; details: lectin titer 16; TBS with 0.2% Triton X-100; room temperature, 1 h; glutaraldehyde-fixed trypsinized erythrocytes
T1 construct: signal peptide 1-18 removed; mainly tetramer; HiLyte Fluor 555-labelled for glycan array
From the text: hemagglutination inhibition, rabbit erythrocytes on OXYL

OXYL [2] = target: T1, OXYL; assay: glycan array, fluorescence-labelled lectin; type: binding; details: immobilised glycan (1 mM spotted); HiLyte Fluor 555-labelled OXYL 0-20 μg/mL; 4 °C overnight; weaker than LNnT

T1 sequence (A0A482DHP7 entry or part of it): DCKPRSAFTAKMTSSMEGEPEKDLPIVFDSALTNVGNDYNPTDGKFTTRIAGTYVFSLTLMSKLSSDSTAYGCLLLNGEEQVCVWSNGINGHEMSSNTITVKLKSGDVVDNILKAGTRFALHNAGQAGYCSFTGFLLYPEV

Minimum inhibitory conc. (OXYL [1]) [mM]	Structure (SMILES)	glycan array, fluorescence-labelled lectin (OXYL [2])
3.13 (≈ 1200 µg/mL)	CC(=O)N[C@H]1C(O)O[C@H](CO)[C@@H](O[C@@H]2O[C@H](CO)[C@H](O)[C@H](O)[C@H]2O)[C@@H]1O (some centres unmarked) [N-acetyllactosamine]	–
–	CC(=O)N[C@H]1[C@H]([C@H](O)[C@H](O)CO)O[C@@](O[C@H]2[C@@H](O)[C@@H](CO)O[C@@H](O[C@H]3[C@H](O)[C@@H](NC(C)=O)C(O)O[C@@H]3CO)[C@@H]2O)(C(=O)O)C[C@@H]1O (some centres unmarked) [compound 2, S3LN]	OXYL could bind to 3-sialylated LacNAc more strongly than to 6-sialylated LacNAc

From paper PMC6409975, “Functional Characterization of OXYL, A SghC1qDC LacNAc-specific Lectin from The Crinoid Feather Star Anneissia Japonica” (Marine Drugs, 2019)
